Reference: US20230201342A1, “USE OF LENVATINIB PLUS ANTI-PD-1 MONOCLONAL ANTIBODY IN PREPARATION OF ANTI-HEPATOMA DRUG” (Guangzhou X Cell Therapy Biomedical Tech Co., Ltd, priority 2021, published 2023)

Columns and labels:
[1] = test system: CD31, NG2, CD8 in Hepa1-6 tumor tissue; assay: immunohistochemistry of vascular markers and CD8-positive T cell infiltration in tumor tissue (Example 1); format: in vivo, mouse
Procedure: (§1) (1) Separately, 1×10^6 mouse hepatoma cells (Hepa1-6) were implanted into the subcutaneous stratum of the armpits of 20 […] mice aged 3-4 weeks. The mice were randomized into four groups: a blank control group, a 3 mg/kg/day lenvatinib group, a 10 mg/kg/day lenvatinib group, and a 30 mg/kg/day lenvatinib group. (2) When the size of the subcutaneous tumor reached 100-200 mm^3: each mouse of the 3 mg/kg/day lenvatinib group was orally administered with 3 mg/kg/day lenvatinib by gastric gavage once a day; each mouse of the 10 mg/kg/day lenvatinib group was orally administered with 10 mg/kg/day lenvatinib by gastric gavage once a day; and each mouse of the 30 mg/kg/day lenvatinib group was orally administered with 30 mg/kg/day lenvatinib by gastric gavage once a day. According to the existing literature, 30 mg/kg was a routine dose of lenvatinib (Selleck) for laboratory mice. (4) After 3 weeks, the mice were sacrificed, tumor tissues were resected, a part of fresh tumor tissue was separated and ground into a single cell suspension, and the proportion of positive cells labeled with CD45 and CD8 was detected by flow cytometry; meanwhile, the other part of tumor tissue was fixed and embedded, and vascular markers (CD31, α-SMA, and VEGFR2) and CD8-positive T cell infiltration were detected by immunohistochemistry.

[2] = test system: mouse hepatoma cells (Hepa1-6) xenograft; assay: subcutaneous tumorigenicity assay, lenvatinib plus anti-PD-1 monoclonal antibody (Example 2); format: in vivo; details: for growth of hepatoma xenograft: oral gavage, 3 weeks
From the text: Detection of the effects of different doses of lenvatinib plus anti-PD-1 monoclonal antibody on hepatoma xenograft by subcutaneous tumorigenicity assay of immunocompetent C57B/L mice.
(1) Separately, 1×10^6 mouse hepatoma cells (Hepa1-6) were implanted into the subcutaneous stratum of the armpits of 24 C57B/L mice aged 3-4 weeks. The mice were randomized into six groups: The mice were randomized into six groups: a blank control group, an anti-PD-1 monoclonal antibody alone group, a low-dose lenvatinib group, a high-dose lenvatinib group, a low-dose lenvatinib+anti-PD-1 monoclonal antibody group, and a high-dose lenvatinib+anti-PD-1 monoclonal antibody group.
(2) When the size of the subcutaneous tumor reached 100-200 mm^3: each mouse of the anti-PD-1 monoclonal antibody alone group was intraperitoneally administered with 200 μg of anti-PD-1 monoclonal antibody every three days; each mouse of the low-dose lenvatinib group was orally administered with 10 mg/kg/day lenvatinib by gastric gavage once a day; each mouse of the high-dose lenvatinib group was orally administered with 30 mg/kg/day lenvatinib by gastric gavage once a day; each mouse of the low-dose lenvatinib group+anti-PD-1 monoclonal antibody was orally administered with 10 mg/kg/day lenvatinib by gastric gavage once a day and intraperitoneally administered with 200 μg of anti-PD-1 monoclonal antibody every three days; and each mouse of the high-dose lenvatinib group+anti-PD-1 monoclonal antibody was orally administered with 30 mg/kg/day lenvatinib by gastric gavage once a day and intraperitoneally administered with 200 μg of anti-PD-1 monoclonal antibody every three days.
(4) After 3 weeks, the mice were sacrificed, and data statistics and reduction were conducted.

[3] = test system: mouse hepatoma cells (Hepa1-6) xenograft; assay: subcutaneous tumorigenicity assay, tumor size (Example 1); format: in vivo
Procedure: 3. Detection of the effects of different doses of lenvatinib on hepatoma xenograft by subcutaneous tumorigenicity assay of immunocompetent C57B/L mice. (1) Separately, 1×10^6 mouse hepatoma cells (Hepa1-6) were implanted into the subcutaneous stratum of the armpits of 20 […] mice aged 3-4 weeks. The mice were randomized into four groups: a blank control group, a 3 mg/kg/day lenvatinib group, a 10 mg/kg/day lenvatinib group, and a 30 mg/kg/day lenvatinib group. (2) When the size of the subcutaneous tumor reached 100-200 mm^3: each mouse of the 3 mg/kg/day lenvatinib group was orally administered with 3 mg/kg/day lenvatinib by gastric gavage once a day; each mouse of the 10 mg/kg/day lenvatinib group was orally administered with 10 mg/kg/day lenvatinib by gastric gavage once a day; and each mouse of the 30 mg/kg/day lenvatinib group was orally administered with 30 mg/kg/day lenvatinib by gastric gavage once a day. According to the existing literature, 30 mg/kg was a routine dose of lenvatinib (Selleck) for laboratory mice. (3) The tumor size was measured every two days, and the difference in tumor size was compared among groups.

[4] = test system: CD8-positive T cells in Hepa1-6 tumor tissue; assay: flow cytometry of CD45/CD8-positive cells in resected tumor tissue (Example 1); format: in vivo, mouse; details: 10 mg/kg/day, after 3 weeks
Procedure: as §1

## COc1cc2nccc(Oc3ccc(NC(=O)NC4CC4)c(Cl)c3)c2cc1C(N)=O [lenvatinib]
[1]; 10 mg/kg/day
  infiltrating CD8-positive T cells in the tumor tissue: significantly increased
[1]; 10 mg/kg/day only
  expression of peripheral cell marker molecule NG2: upregulation
  vascular normalization in tumor tissue: significantly improve vascular normalization
[1]; all three doses 3, 10, 30 mg/kg/day
  microvessel density (CD31) in hepatoma tissue: significantly reduce
[2]; 10 vs 30 mg/kg/day lenvatinib alone
  difference in tumor growth between low-dose and high-dose groups: no significant difference
[2]; high-dose lenvatinib 30 mg/kg/day
  growth of hepatoma xenograft: inhibit the growth of hepatoma xenograft
[2]; low-dose lenvatinib 10 mg/kg/day
  growth of hepatoma xenograft: inhibit the growth of hepatoma xenograft
[3]; 3 vs 10 vs 30 mg/kg/day lenvatinib
  difference in tumor growth among the three dose groups: no significant difference
[3]; all three doses 3, 10, 30 mg/kg/day, oral gavage once a day, 3 weeks
  growth of hepatoma xenograft (tumor size): inhibit the growth of hepatoma xenograft
[4]
  percentage of CD8-positive T cells in the tumor tissue: significantly increased
